Laboratory results as given in ChEMBL document CHEMBL1123015, “Thiol-containing androgens as suicide substrates of aromatase” (J Med Chem, 1985).

Biological target: T1, Aromatase (Homo sapiens, UniProt P11511)
T1 sequence (P11511 whole entry): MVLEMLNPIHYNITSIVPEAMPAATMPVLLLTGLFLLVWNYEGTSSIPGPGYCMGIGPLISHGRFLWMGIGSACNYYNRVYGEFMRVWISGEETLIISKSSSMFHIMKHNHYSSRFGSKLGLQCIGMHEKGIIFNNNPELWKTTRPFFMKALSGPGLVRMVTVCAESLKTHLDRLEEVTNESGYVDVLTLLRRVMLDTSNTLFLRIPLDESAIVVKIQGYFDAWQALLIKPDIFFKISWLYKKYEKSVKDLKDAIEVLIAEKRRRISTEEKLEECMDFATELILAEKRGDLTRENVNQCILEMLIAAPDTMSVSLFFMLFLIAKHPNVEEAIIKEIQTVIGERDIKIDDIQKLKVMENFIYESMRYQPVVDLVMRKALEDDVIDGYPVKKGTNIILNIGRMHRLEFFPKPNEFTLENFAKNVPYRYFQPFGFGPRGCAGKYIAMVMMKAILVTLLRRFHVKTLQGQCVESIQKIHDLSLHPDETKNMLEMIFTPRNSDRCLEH
Experiment: Percentage aromatase activity remaining in human placental microsomes with NADPH
Assay type: functional, Placenta

## C[C@]12CC[C@H]3[C@@H](CCC4=CC(=O)CC[C@@]43CS)[C@@H]1CCC2=O
  Activity: 94%
